Results: ChEMBL document CHEMBL1156829 (Proc Natl Acad Sci U S A, 2008)

Legend:
Plasmodium falciparum [1] = assay: NOVARTIS: Inhibition of Plasmodium falciparum 3D7 (drug-susceptible) proliferation in erythrocyte-based infection assay; assay type: functional, organism-based; conditions: Plasmodium falciparum, 3D7
Plasmodium falciparum [2] = assay: NOVARTIS: Inhibition of Plasmodium falciparum W2 (drug-resistant) proliferation in erythrocyte-based infection assay; assay type: functional, organism-based; conditions: Plasmodium falciparum, W2; read-out: EC50
[3] = NOVARTIS: Cytotoxicity against human hepatocellular carcinoma cell line (Huh7); assay type: toxicity, cell-based, Huh-7; conditions: Huh7 cells (hepatocellular carcinoma cell line)

With Cn1c(=O)n(Cc2ccccc2)c(=O)c2c1nc(SCC(=O)Nc1ccccc1)n2Cc1ccccc1 the EC50 (Plasmodium falciparum [1]) was 1850 nM, the EC50 (Plasmodium falciparum [2]) was 362 nM and the CC50 [3] was > 100000 nM.
With CCOC(=O)c1nnn(-c2nonc2N)c1-c1ccc(C)cc1 the EC50 (Plasmodium falciparum [1]) was 304 nM, the EC50 (Plasmodium falciparum [2]) was 367 nM and the CC50 [3] was > 100000 nM.
Compound CCN1CCN(c2nc3ccccn3c(=O)c2C=C2SC(=S)N(C(C)C)C2=O)CC1 has an EC50 (Plasmodium falciparum [1]) of 701 nM, an EC50 (Plasmodium falciparum [2]) of 304 nM and a CC50 [3] of 79000 nM.
Compound COc1ccc2nc(C)cc(NN=Cc3cccc(OC)c3O)c2c1 has an EC50 (Plasmodium falciparum [1]) of 25.1 nM, an EC50 (Plasmodium falciparum [2]) of 23.5 nM and a CC50 [3] of 6120 nM.
With CCc1cc(=O)n(C)c(SC(CC)C(=O)Nc2ccc(F)cc2)n1 (stereo not given) the EC50 (Plasmodium falciparum [1]) was 484 nM, the EC50 (Plasmodium falciparum [2]) was 383 nM and the CC50 [3] was > 100000 nM.
In the case of CCOc1ccc(-c2cc(C)[n+](CCO)c(-c3ccc(OCC)cc3)c2)cc1, the EC50 (Plasmodium falciparum [1]) is reported as 1080 nM, the EC50 (Plasmodium falciparum [2]) is reported as 352 nM and the CC50 [3] is reported as > 100000 nM.
Work on COc1ccc(C=NNc2nc3ccccc3[nH]2)cc1OC yielded an EC50 (Plasmodium falciparum [1]) of 243 nM, an EC50 (Plasmodium falciparum [2]) of 128 nM and a CC50 [3] of 36500 nM.
In the case of Cc1ccnc(NC(c2ccncc2)c2ccc3cccnc3c2O)c1 (stereo not given), the EC50 (Plasmodium falciparum [1]) is reported as 1000 nM, the EC50 (Plasmodium falciparum [2]) is reported as 357 nM and the CC50 [3] is reported as > 100000 nM.
Compound COc1cc(C(=O)ON=C(N)Cc2cccc3ccccc23)cc(OC)c1OC has an EC50 (Plasmodium falciparum [1]) of 280 nM, an EC50 (Plasmodium falciparum [2]) of 171 nM and a CC50 [3] of 48100 nM.
In the case of CCOC(=O)CN(C)Cc1ccc2c(NC(=O)c3ccc(C)s3)c(C(=O)OC)sc2n1, the EC50 (Plasmodium falciparum [1]) is reported as 766 nM, the EC50 (Plasmodium falciparum [2]) is reported as 354 nM and the CC50 [3] is reported as > 100000 nM.
In the case of Cc1ccccc1N=Nc1ccc(NC(=O)c2ccco2)c(C)c1, the EC50 (Plasmodium falciparum [1]) is reported as 402 nM, the EC50 (Plasmodium falciparum [2]) is reported as 272 nM and the CC50 [3] is reported as 72200 nM.
For Cc1ccc(-c2nn3c(O)c4c(nc3c2C)CCCC4)cc1, the EC50 (Plasmodium falciparum [1]) was 256 nM, the EC50 (Plasmodium falciparum [2]) was 384 nM and the CC50 [3] was > 100000 nM.
For COc1cc(C=CC(=O)Nc2c3c(nn2-c2ccc(F)cc2)CSC3)cc(OC)c1OC, the EC50 (Plasmodium falciparum [1]) was 918 nM, the EC50 (Plasmodium falciparum [2]) was 381 nM and the CC50 [3] was > 100000 nM.
Work on COc1cc(C=NNc2nc3ccccc3[nH]2)cc(OC)c1OC yielded an EC50 (Plasmodium falciparum [1]) of 176 nM, an EC50 (Plasmodium falciparum [2]) of 339 nM and a CC50 [3] of 87500 nM.
For CCOc1cccc(Nc2c3c(nc4ncnn24)CCC3)c1, the EC50 (Plasmodium falciparum [1]) was 597 nM, the EC50 (Plasmodium falciparum [2]) was 374 nM and the CC50 [3] was > 100000 nM.
In the case of NC(=S)NN=CC(=NNC(N)=S)c1ccccc1, the EC50 (Plasmodium falciparum [1]) is reported as 48.1 nM, the EC50 (Plasmodium falciparum [2]) is reported as 37.6 nM and the CC50 [3] is reported as > 10000 nM.
In the case of Cc1cc(C)c2c(c1)-c1c(ssc1=S)C(C)(C)N2C(=O)c1ccccc1, the EC50 (Plasmodium falciparum [1]) is reported as 523 nM, the EC50 (Plasmodium falciparum [2]) is reported as 370 nM and the CC50 [3] is reported as > 100000 nM.
For COc1cccc(C2Sc3ccccc3NC3=C2C(=O)c2ccccc23)c1 (stereo not given), the EC50 (Plasmodium falciparum [1]) was 577 nM, the EC50 (Plasmodium falciparum [2]) was 362 nM and the CC50 [3] was > 100000 nM.
For CCCCNc1c2c(c(C#N)c3nc4ccccc4n13)CCC2, the EC50 (Plasmodium falciparum [1]) was 113 nM, the EC50 (Plasmodium falciparum [2]) was 367 nM and the CC50 [3] was > 100000 nM.
In the case of CCSCCOC(=O)C1=C(C)NC2=C(C(=O)CCC2)C1c1ccc(OC)c(Br)c1 (stereo not given), the EC50 (Plasmodium falciparum [1]) is reported as 371 nM, the EC50 (Plasmodium falciparum [2]) is reported as 360 nM and the CC50 [3] is reported as > 100000 nM.
For Cc1c2ccccc2cc(Cc2ccccc2)[n+]1C, the EC50 (Plasmodium falciparum [1]) was 488 nM, the EC50 (Plasmodium falciparum [2]) was 369 nM and the CC50 [3] was > 100000 nM.
With CCC(C)NC(=O)c1nn(-c2ccc(OC)cc2)c(=O)c2ccccc12 (stereo not given) the EC50 (Plasmodium falciparum [1]) was 798 nM, the EC50 (Plasmodium falciparum [2]) was 353 nM and the CC50 [3] was > 100000 nM.
With Cc1ccccc1Oc1cc(NC(=O)c2cc3n(n2)C(C(F)(F)F)CC(c2ccccc2)N3)cc(Oc2ccccc2C)c1 (stereo not given) the EC50 (Plasmodium falciparum [1]) was 359 nM, the EC50 (Plasmodium falciparum [2]) was 380 nM and the CC50 [3] was > 100000 nM.
For O=C(NN=Cc1c(O)ccc2ccccc12)c1cccnc1, the EC50 (Plasmodium falciparum [1]) was 875 nM, the EC50 (Plasmodium falciparum [2]) was 373 nM and the CC50 [3] was > 100000 nM.
For Cc1cc(C(=O)Nc2cnn(Cc3ccc(Cl)cc3Cl)c2)no1, the EC50 (Plasmodium falciparum [1]) was 620 nM, the EC50 (Plasmodium falciparum [2]) was 371 nM and the CC50 [3] was > 100000 nM.
With CCCCN(C(=O)CCC(=O)Nc1cc(C)on1)C(C(=O)NC1CCCC1)c1ccc(C)o1 (stereo not given) the EC50 (Plasmodium falciparum [1]) was 22.2 nM, the EC50 (Plasmodium falciparum [2]) was 36.9 nM and the CC50 [3] was > 10000 nM.
With C(=C1\C(c2ccccc2)=Nc2ccccc21)/c1c(-c2ccccc2)[nH]c2ccccc12 the EC50 (Plasmodium falciparum [1]) was 210 nM, the EC50 (Plasmodium falciparum [2]) was 36.4 nM and the CC50 [3] was > 10000 nM.
With COc1ccc(CNC(=O)C2CNCC2c2ccc(C(F)(F)F)cc2)cc1 (stereo not given) the EC50 (Plasmodium falciparum [1]) was 165 nM, the EC50 (Plasmodium falciparum [2]) was 85.7 nM and the CC50 [3] was 24100 nM.
With CN1CCc2c(sc3nc(SCc4ccc(Cl)cc4)n(-c4cccc(Cl)c4)c(=O)c23)C1 the EC50 (Plasmodium falciparum [1]) was 1050 nM, the EC50 (Plasmodium falciparum [2]) was 363 nM and the CC50 [3] was > 100000 nM.
In the case of CC(C)(C)c1csc(NC(=O)c2ccc(S(=O)(=O)N3CCCCC3)cc2)n1, the EC50 (Plasmodium falciparum [1]) is reported as > 12500 nM, the EC50 (Plasmodium falciparum [2]) is reported as 175 nM and the CC50 [3] is reported as 49100 nM.
In the case of COc1cc(C2c3[nH]c4ccccc4c3C[C@H]3C(=O)N(CCc4ccccc4)CC(=O)N23)cc(OC)c1OC (stereo not given in full), the EC50 (Plasmodium falciparum [1]) is reported as 611 nM, the EC50 (Plasmodium falciparum [2]) is reported as 374 nM and the CC50 [3] is reported as > 100000 nM.
In the case of C=CCn1c(=O)c(C(=O)NCC[N+](CC)(CC)CC=C)c(O)c2ccccc21, the EC50 (Plasmodium falciparum [1]) is reported as 1130 nM, the EC50 (Plasmodium falciparum [2]) is reported as 385 nM and the CC50 [3] is reported as > 100000 nM.
In the case of Oc1c(CN2CCN(Cc3ccc4cccnc4c3O)CC2)ccc2cccnc12, the EC50 (Plasmodium falciparum [1]) is reported as 561 nM, the EC50 (Plasmodium falciparum [2]) is reported as 318 nM and the CC50 [3] is reported as > 89300 nM.
CCC1(C)CC(CCNCc2ccccc2O)(c2ccc(OC)cc2)CCO1 (stereo not given) showed an EC50 (Plasmodium falciparum [1]) of 455 nM, an EC50 (Plasmodium falciparum [2]) of 76.5 nM and a CC50 [3] of 21400 nM.
For CSc1ccccc1CN1CCc2nc(N3CCCCC3)sc2C1, the EC50 (Plasmodium falciparum [1]) was 369 nM, the EC50 (Plasmodium falciparum [2]) was 38.1 nM and the CC50 [3] was > 10000 nM.
